# Laboratory results: patent publication US20210040041A1, “QUINOLINE DERIVATIVES AND PREPARATION METHODS AND USES THEREOF” (DONGGUAN HEC PESTICIDES R&D CO., LTD., priority 2018, published 2021)
# Columns and labels:
# Assay type in all cases: in vivo
# Armyworm [1] = experiment: Test examples 1: leaf dipping method, corn leaves, Armyworm; details: Mythimna separata, foliar, 72 h; 200 mg/L, third instar larvae, after 3 days; read-out: mortality rate to Armyworm
# Experimental: (§1) A certain amount of compound (0.0001 g) was weighed by using an analytical balance, and prepared to a mother liquid (1) with N,N-dimethylformamide containing 1% Tween-80 emulsifier, and then the mother liquid was diluted with distilled water for standby.
# (§2) Leaf dipping method: the test target was Armyworm. An appropriate amount of corn leaves were infiltrated in the prepared liquid and dried in the shade naturally, and then placed in a culture dish with filter paper; armyworm larvae in the third instar were inoculated to the corn leaves, 10 heads per dish, and the dishes were cultured in an observation room at 24-27° C. The results were investigated after 3 days. […] The test concentration was 200 mg/L.
# [2] = tested on: Frankliniella occidentalis; experiment: Test examples 2: spraying of cowpea leaf discs, Frankliniella occidentalis; details: foliar, 24 h, after 1 day, read-out: The mortality rate (%) of the compound to Frankliniella occidentalis
# Experimental: (§3) A certain amount of compound (0.0001 g) was weighed by using an analytical balance, and prepared to a mother liquid (1%) with N, N-dimethylformamide containing 1% Tween-80 emulsifier, and then the mother liquid was diluted with distilled water for standby.
# Spraying: cowpea leaves growing uniformity were punched with a punching bear to make leaf discs, leaf discs were placed onto degreased cotton blocks in a dish, two leaf discs per dish, and water was added into the dish and it was flush with the leaf discs, and the dish was for standby. Frankliniella occidentalis in the 2-3rd instar were inoculated to the ready leaf discs, more than 15 per disc. Which were spayed under Potter spray tower at a dose of 0.5 mL per treatment. The blank control was treated first, and then the above operations were repeated in the order of the test dose from low to high, with 2 repeats per treatment. After treatment, the samples were placed in the observation room, and the results were investigated 1 day later. […] The test concentrations were 20 mg/L, 10 mg/L, 5.0 mg/L, 2.5 mg/L, 1.25 mg/L, 0.625 mg/L.
# Diamondback moth [3] = experiment: Test examples 1: leaf dipping method, cabbage leaves, Diamondback moth; details: Plutella xylostella, foliar, 72 h; 200 mg/L, third instar, after 3 days; read-out: mortality rate to Diamondback moth
# Experimental: as §1
# as §2, with “targets were Diamondback moth, Tobacco Cutworm and Beet” for “target was”, “cabbage” for “corn”, “worms” for “armyworm larvae”, “the” for “the corn”, “200 mg/L or 100” for “200”
# Armyworm [4] = experiment: Test examples 2: leaf dipping method, Armyworm; details: Mythimna separata, foliar, 72 h, after 3 days, read-out: The mortality rate (%) of the compound to Armyworm
# Experimental: as §3
# (§4) Leaf dipping method: an appropriate amount of corn leaves/cabbage/cowpea were infiltrated in the prepared liquid and dried in the shade naturally, and then placed in a culture dish with filter paper; armyworm/Diamondback moth/Beet Armyworm larvae in the 2-3rd instar were inoculated to the corn leaves, 10 heads per dish, and the dishes were cultured in an observation room at 24-27° C. The results were investigated after 3 days. […] The test concentrations were 50 mg/L, 25 mg/L, 12.5 mg/L, 6.25 mg/L, 3.13 mg/L, 1.56 mg/L.
# Brown rice planthopper = experiment: Test examples 1: spraying leaves and stems, rice seedlings, Brown rice planthopper; details: 500 mg/L, after 72 hours; read-out: mortality rate to Brown rice planthopper
# Experimental: as §1
# Spraying Leaves and Stems: the test target was Brown rice planthopper. Rice seedlings inoculated with Brown rice planthopper were spayed under Potter spray tower, and then the Brown rice planthopper was placed and cultured in an observation room at 24-27° C. The results were investigated after 72 hours. The test concentration was 500 mg/L.
# Beet Armyworm [5] = experiment: Test examples 1: leaf dipping method, cabbage leaves, Beet Armyworm; details: Spodoptera exigua, foliar, 72 h; 100 mg/L, third instar, after 3 days; read-out: mortality rate to Beet Armyworm
# Experimental: as §1
# as §2, with “targets were Diamondback moth, Tobacco Cutworm and Beet” for “target was”, “cabbage” for “corn”, “worms” for “armyworm larvae”, “the” for “the corn”, “200 mg/L or 100” for “200”
# Tobacco Cutworm = experiment: Test examples 1: leaf dipping method, cabbage leaves, Tobacco Cutworm; details: foliar, 72 h; 100 mg/L, third instar, after 3 days; read-out: mortality rate to Tobacco Cutworm
# Experimental: as §1
# as §2, with “targets were Diamondback moth, Tobacco Cutworm and Beet” for “target was”, “cabbage” for “corn”, “worms” for “armyworm larvae”, “the” for “the corn”, “200 mg/L or 100” for “200”
# Diamondback moth [6] = experiment: Test examples 2: leaf dipping method, Diamondback moth; details: Plutella xylostella, foliar, 72 h, after 3 days, read-out: The mortality rate (%) of the compound to Diamondback moth
# Experimental: as §3, §4
# Aphis medicaginis = experiment: Test examples 1: leaves dish spraying, Vicia faba leaves, Aphis medicaginis; details: 500 mg/L, after 48 hours, read-out: mortality rate to Aphis medicaginis
# Experimental: as §1
# Leaves Dish Spraying: the test targets were tetranychuscinnabarinus and Aphis craccivora Koch. Vicia faba leaves inoculated with Carmine Spider Mite and Aphis medicaginis were spayed under Potter spray tower, and then the Carmine Spider Mite was placed and cultured in anobservation room at 24-27° C.; the Aphis medicaginis was placed and cultured in an observation room at 20-22° C. The results were investigated after 48 hours. […] The test concentration was 500 mg/L.
# Beet Armyworm [7] = experiment: Test examples 2: leaf dipping method, Beet Armyworm; details: Spodoptera exigua, foliar, 72 h, after 3 days, read-out: The mortality rate (%) of the compound to Beet Armyworm
# Experimental: as §3, §4
# Diamondback moth [8] = experiment: Test examples 3: leaf dipping method, cabbage, Diamondback moth; details: for mortality at 12.5 µg/mL / mortality at 25 µg/mL / mortality at 50 µg/mL: Plutella xylostella, foliar, 72 h, after 3 days, read-out: The mortality rate (%) to Diamondback moth; for mortality at 12.5 µg/mL: 12.5 mg/L; for mortality at 25 µg/mL: 25 mg/L; for mortality at 50 µg/mL: 50 mg/L
# Experimental: (§5) A certain amount of compound (0.0001 g) was weighed by using an analytical balance, and prepared to a mother liquid (1) with N,N-dimethylformamide containing 1% Tween-80 emulsifier, and then the other liquid was diluted with distilled water or standby.
# as §4, with “cabbage was” for “corn leaves/cabbage/cowpea were”, “Armyworm/Diamondback moth” for “armyworm/Diamondback moth/Beet Armyworm”, “inoculated,” for “inoculated to the corn leaves,”
# Armyworm [9] = experiment: Test examples 3: leaf dipping method, cabbage, Armyworm
# Experimental: as §5
# as §4, with “cabbage was” for “corn leaves/cabbage/cowpea were”, “Armyworm/Diamondback moth” for “armyworm/Diamondback moth/Beet Armyworm”, “inoculated,” for “inoculated to the corn leaves,”
smiles,measurement,setting,value
"CCc1nc2cc(C)c(Oc3ccc(OC(F)(F)F)cc3)cc2c(OC(=O)OCCOC)c1C [Example 1, 2-ethyl-3,7-dimethyl-6-(4-(trifluoromethoxy)phenoxy)quinolin-4-yl (2-methoxyethyl)carbonate]",mortality at 200 µg/mL,Armyworm [1],100%
same,mortality at 5 µg/mL,[2]; 5 mg/L,100%
same,mortality at 10 µg/mL,[2]; 10 mg/L,100%
same,mortality at 20 µg/mL,[2]; 20 mg/L,100%
same,mortality at 200 µg/mL,Diamondback moth [3],100%
same,mortality at 12.5 µg/mL,Armyworm [4]; 12.5 mg/L,100%
same,mortality at 25 µg/mL,Armyworm [4]; 25 mg/L,100%
same,mortality at 50 µg/mL,Armyworm [4]; 50 mg/L,100%
same,mortality at 500 µg/mL,Brown rice planthopper,100%
same,mortality at 100 µg/mL,Beet Armyworm [5],100%
same,mortality at 100 µg/mL,Tobacco Cutworm,100%
same,mortality at 12.5 µg/mL,Diamondback moth [6]; 12.5 mg/L,100%
same,mortality at 25 µg/mL,Diamondback moth [6]; 25 mg/L,100%
same,mortality at 50 µg/mL,Diamondback moth [6]; 50 mg/L,100%
same,mortality at 500 µg/mL,Aphis medicaginis,100%
same,mortality at 12.5 µg/mL,Beet Armyworm [7]; 12.5 mg/L,90%
same,mortality at 25 µg/mL,Beet Armyworm [7]; 25 mg/L,100%
same,mortality at 50 µg/mL,Beet Armyworm [7]; 50 mg/L,100%
"CCc1nc2cc(C)c(Oc3ccc(OC(F)(F)F)cc3)c(C)c2c(O)c1C [compound (42), 2-ethyl-3,5,7-trimethyl-6-(4-(trifluoromethoxy)phenoxy)quinolin-4-ol]",mortality at 12.5 µg/mL,Diamondback moth [8],100%
same,mortality at 25 µg/mL,Diamondback moth [8],100%
same,mortality at 50 µg/mL,Diamondback moth [8],100%
same,control effect on Diamondback moth,"Diamondback moth [8]; in words, different doses",significant control effect
same,control effect on Armyworm,"Armyworm [9]; in words, different doses",significant control effect
"CCc1nc2cc(C)c(Oc3ccc(OC(F)(F)F)cc3)cc2c(O)c1C [compound NO. 119, reference compound]",mortality at 12.5 µg/mL,Diamondback moth [8],70%
same,mortality at 25 µg/mL,Diamondback moth [8],90%
same,mortality at 50 µg/mL,Diamondback moth [8],100%
same,mortality at 12.5 µg/mL,"Armyworm [9]; Mythimna separata, foliar, 72 h, 12.5 mg/L, after 3 days, read-out: The mortality rate (%) to Armyworm",10%
same,mortality at 25 µg/mL,"Armyworm [9]; Mythimna separata, foliar, 72 h, 25 mg/L, after 3 days, read-out: The mortality rate (%) to Armyworm",50%
same,mortality at 50 µg/mL,"Armyworm [9]; Mythimna separata, foliar, 72 h, 50 mg/L, after 3 days, read-out: The mortality rate (%) to Armyworm",60%
